Assay in all cases: NCI tumour cell line growth inhibition, 48 h
Assay [1] concerns HCC-2998 colon.
For assay [2], the system named is K-562 leukemia.
In assay [3] the test system is NCI-H460 lung.
Assay [4] concerns RPMI-8226 leukemia.

Values joined by “and” are separate entries in the source; they are usually repeats but may differ in a detail not shown here. Identical values can stand only once.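 In this assay, cells in 96-well plates receive the compound at five concentrations for 48 hours. Endpoints are linearly interpolated between the surrounding concentrations. GI50 = concentration required for 50% inhibition of growth. Definition used: TGI = concentration required for complete inhibition of growth.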

Turning to `CN(CCNC(=O)c1c[nH]c2c1Cc1ccccc1-2)CCNC(=O)c1c[nH]c2c1Cc1ccccc1-2`, the TGI was over 100 µM in assay [1], over 100 µM in assay [2], over 100 µM in assay [3] and 73.4 µM in assay [4].

`CCC(C)C1=C(O)[N+]2([O-])Oc3ccc(-c4c(O)c(O)c(-c5ccc(OC(C)=O)cc5)c(OC(C)=O)c4OC(C)=O)cc3OC2(C(C)CC)C(=O)N1O` (centres undefined): the TGI in assay [1] was 41.5 µM; in assay [2] it was 49.1 µM and > 50 µM; in assay [3], over 50 µM; in assay [4] it was over 50 µM.

In the case of `CC(C)=CC[C@]12CCN(C)[C@H]1N(S(=O)(=O)c1ccccc1)c1ccccc12`, the TGI is over 61.4 µM in assay [1], over 100 µM in assay [2], over 73.5 µM in assay [3] and over 73 µM in assay [4].

As for `Cc1ccc(C2(c3ccc(F)cc3)OC(=O)c3ccccc32)c(O)c1` (centres undefined), the TGI in assay [1] is 38.4 µM; in assay [2], over 100 µM; in assay [3], 35.5 µM; in assay [4], 59.8 µM.

`COc1ccccc1C(=O)NCC1CCCN2CCCCC12` (centres undefined): the TGI in assay [1], in assay [2], in assay [3] and in assay [4] was over 100 µM each time.

`Cc1ccc2c(c1)nc1n2C(N)=Nc2ccccc2S1`: the TGI in assay [1], in assay [2], in assay [3] and in assay [4] was over 100 µM throughout.

`O=C1CN(c2cccc(Cl)c2)C(=O)CN1NCNN1CC(=O)N(c2cccc(Cl)c2)CC1=O`: the TGI in assay [1], in assay [3] and in assay [4] was over 100 µM in each case.

On to `N/C1=C/C(=O)NC(=O)c2c(c3ccccc3oc2=O)C1`, for which the TGI in assay [1], in assay [2], in assay [3] and in assay [4] was over 100 µM each time.

With `Cn1c(=O)c2c(nc3sc4ccccc4c(=O)n32)n(C)c1=O`, the TGI in assay [1], in assay [2], in assay [3] and in assay [4] was over 100 µM each time.

With `CC1OC2OC3C(OCC(O)C3O)OC(=O)[C@]34CCC(C)(C)CC3C3=CCC5[C@@]6(C)C[C@H](O)[C@H](OC7OC(CO)C(O)C(O)C7OC7OCC(OC(=O)CC(C)(O)CC(=O)OC1C(O)C2O)C(O)C7O)[C@@](C)(CO)C6CC[C@@]5(C)[C@]3(C)CC4` (some centres undefined), the TGI in assay [1] is 5.12 µM; in assay [3], 23.9 µM; in assay [4] it was 17.7 µM.

For `CCOC(=O)C1(C#N)CC1`, the TGI in assay [1], in assay [2] and in assay [3] was over 100 µM throughout.

Regarding `C[C@@H]1CC(=O)C[C@@H]2CC[C@H]3[C@@H]4CC[C@H](OC(=O)c5cccc6cc7ccccc7nc56)[C@H]4CC[C@@H]3[C@H]21`, the results for the TGI in assay [2] and in assay [3] were 38 µM and 30.8 µM, respectively.

For the compound `COc1cc2c(/C=C3/C(=O)Nc4ccc(Cl)cc43)c(Cl)[nH]c2cc1C`, the TGI in assay [2] amounted to 6.3 µM; in assay [3], 13.9 µM; in assay [4] it was 5.13 µM.

Take `C/C(=N\Nc1nc2ccccc2s1)c1cc2ccccc2cn1`: the TGI is 27.2 µM in assay [1], 33.7 µM in assay [3] and over 100 µM in assay [4].

For the compound `COC(=O)Nc1nc2ccc(S(=O)(=O)N3CCOCC3)cc2[nH]1`, the TGI in assay [2], in assay [3] and in assay [4] was over 100 µM in each case.

`CCCCCCCCCCCCCCCCNc1ccn(C2CC(O)C(COC(c3ccccc3)(c3ccccc3)c3ccc(OC)cc3)O2)c(=O)n1` (centres undefined): the TGI in assay [1], in assay [2], in assay [3] and in assay [4] was over 100 µM throughout.

In the case of `OC1COC2CC(Nc3ccccn3)OC12` (centres undefined), the TGI in assay [1], in assay [2], in assay [3] and in assay [4] was over 100 µM in each case.

Consider `O=c1[nH]c(NCc2ccc(Cl)cc2)nc2nc[nH]c12`, for which the TGI in assay [1], in assay [2], in assay [3] and in assay [4] was over 100 µM throughout.

As to `CC(C)C1=CC(=O)[C@@](C)(C2[C@H](O)C[C@@]3(C)[C@@H]4CC=C5[C@@H](CC[C@@H](OC6OCC(O)C(O)C6OC6OC(C)C(O)C(O)C6O)C5(C)C)[C@]4(C)C(=O)C[C@]23C)O1` (some centres undefined), the TGI in assay [1], in assay [2], in assay [3] and in assay [4] was over 100 µM each time.

As to `C#CC(O)/C=C/CCCCCCC#CC/C=C\CC#CCCCCCCCCC(O)C#C` (centres undefined), the TGI in assay [1] is 9.8 µM; in assay [2], over 21.6 µM; in assay [3], 41.5 µM.

As for `CC1(C)OC2OC(C(COS(=O)(=O)C(F)(F)F)N=[N+]=[N-])C(OC(=O)c3ccccc3)C2O1` (centres undefined), the TGI in assay [1], in assay [2], in assay [3] and in assay [4] was over 100 µM in each case. Also, the GI50 in assay [4] was > 100 µM and 26.7 µM.

For the compound `O=C(/C(=C\I)c1ccccc1)c1ccccc1`, the TGI in assay [1] is 16.1 µM; in assay [2] it was 26.7 µM; in assay [3], 27.3 µM; in assay [4], over 21.2 µM.

Take `O=C1CSC(c2cccc(Cl)c2)N1c1ccc(-c2ccc(-n3c(-c4ccccc4)nc4ccccc4c3=O)cc2)cc1` (centres undefined): the TGI in assay [1], in assay [2], in assay [3] and in assay [4] was over 100 µM in each case.

As for `Br[C@@H]1[C@H]2c3nc4ccccc4nc3[C@@H]1C[C@H]2Br`, the TGI in assay [1], in assay [2] and in assay [3] was over 100 µM throughout.

Consider `COc1cc2c(cc1OC)C(=O)/C(=C/c1cc(C)cc(C)c1)C2`, for which the TGI was 2.14 µM in assay [1], over 38 µM in assay [2], 5.1 µM in assay [3] and over 42.6 µM in assay [4].

`C=C1C(=O)O[C@H]2C[C@@H]1[C@@H](O)[C@H](O)[C@@H](C)CCCC(C)=CCC[C@@]2(C)O`: the TGI was 60.5 µM in assay [1], over 100 µM in assay [2], 54.1 µM in assay [3] and 45.3 µM in assay [4].

Take `COc1cc2c(/C=C3/C(=O)N(C)c4ccc(O)cc43)c(Cl)[nH]c2cc1C`: the TGI in assay [1] was determined as 0.85 µM; in assay [2], 11.7 µM; in assay [3] it was 19.8 µM; in assay [4], 4.7 µM.

`CCN1CCC(CNC(=O)c2ccc(N)cc2)N1CC` (centres undefined): the TGI in assay [1], in assay [2], in assay [3] and in assay [4] was over 100 µM in each case.

In the case of `C[C@]12CC(c3ccccc3O1)C(C(=O)Nc1nc(C34CC5CC(CC(C5)C3)C4)cs1)C(=O)N2` (some centres undefined), the TGI in assay [1], in assay [2], in assay [3] and in assay [4] was over 100 µM throughout.

Regarding `CC(=O)OCC1OC(n2c(S)c(C#N)c(-c3ccccc3)c(C#N)c2=O)C(OC(C)=O)C(OC(C)=O)C1OC(C)=O` (centres undefined), the GI50 was > 100 µM and 18 µM in assay [1]; > 100 µM and 35 µM in assay [4]. Moreover, the TGI in assay [1] was > 100 µM and 32.9 µM; in assay [2], over 100 µM; in assay [3], over 100 µM; in assay [4], > 100 µM and 75 µM.

As for `CC1=C(C)CC2(C=C(C(C)(C)C)C(=O)C(C(C)(C)C)=C2)SC1`, the values for the TGI in assay [2], in assay [3] and in assay [4] were over 100 µM, over 100 µM and 33.8 µM, respectively.

With `CCc1c(-c2ccc(OC)cc2)oc(OC)c(C)c1=O`, the TGI in assay [1], in assay [2] and in assay [3] was over 100 µM each time.

Consider `CC(=O)OC1[C@H](OC(C)=O)C2=C(C)[C@@H](OC(C)=O)C[C@@]2(C(C)(C)O)[C@@H](OC(C)=O)[C@H]2[C@@]1(C)[C@@H](OC(C)=O)CC(OC(C)=O)[C@]21CO1` (some centres undefined), for which the TGI in assay [2] and in assay [4] was over 100 µM in each case.

In the case of `COC(=O)C1(SC)C2CCC3C2CCC31` (centres undefined), the TGI in assay [1], in assay [2], in assay [3] and in assay [4] was over 100 µM throughout.

In the case of `CC(Oc1ccccc1)C(=O)NNC(=O)OC(C)(C)C` (centres undefined), the TGI in assay [1], in assay [2], in assay [3] and in assay [4] was over 100 µM throughout.

For `CCOC(=O)/C=C(\C(=O)OCC)n1cc(C)c(=O)n(Cc2cnnn2COCCOC(C)=O)c1=O`, the TGI in assay [1] turned out to be 30.7 µM; in assay [2], 19.2 µM; in assay [3], 35.6 µM; in assay [4], 18.5 µM.

On to `Cc1ccc2nc(-c3ccc(C(C)(C)C)cc3)oc(=O)c2c1`, for which the TGI in assay [1] is 27.8 µM; in assay [2], 51 µM; in assay [3], 41.6 µM; in assay [4] it was 48.9 µM.

As to `CCOC(=O)c1c(SC(=O)c2ccc(OC)cc2)n(-c2ccccc2)c(=S)n(-c2ccccc2)c1=O`, the TGI in assay [1], in assay [2] and in assay [3] was over 100 µM in each case.

As to `C=C(Cl)C(Cl)(CCl)CCC(Br)C(C)(C)Br` (centres undefined), the TGI in assay [1], in assay [2] and in assay [4] was over 10 µM in each case.

Consider `O=c1c(Cc2ccc(Cl)cc2)nnc2sc(-c3ccc(-c4ccc(Cl)cc4Cl)o3)nn12`, for which the TGI in assay [1], in assay [2], in assay [3] and in assay [4] was over 100 µM throughout.

Regarding `Brc1cccc(C2ON=C(c3ccccc3)N2C23CC4CC(CC(C4)C2)C3)c1` (centres undefined), the TGI in assay [1], in assay [2], in assay [3] and in assay [4] was over 10 µM throughout.

Turning to `O=C1C(c2c(O)[nH]c3ccc(Br)cc23)=Nc2ccc(Br)cc21`, the TGI in assay [1], in assay [2], in assay [3] and in assay [4] was over 100 µM throughout.

Consider `CC1OC(OC2C(O[C@H]3CC[C@@]4(C)C(=CC[C@H]5[C@@H]6C[C@@H]7O[C@]8(CC[C@@H](C)CO8)[C@@H](C)[C@@H]7[C@@]6(C)CC[C@@H]54)C3)OC(CO)C(O)C2O)C(O)C(O)C1O` (some centres undefined), for which the TGI in assay [1] was 2.26 µM; in assay [2] it was over 25 µM; in assay [3] it was 2.34 µM; in assay [4], over 25 µM.

For the compound `COc1nc2ccc(COc3ccc(C(=O)O)cc3)cc2nc1OC`, the TGI in assay [1], in assay [2] and in assay [3] was over 100 µM each time.

As for `O=C(Cn1c(C(=O)c2ccccc2)nc2ccccc21)c1ccccc1`, the TGI in assay [1], in assay [3] and in assay [4] was over 100 µM in each case.

On to `C/C(=C/CC[C@]1(CO)CC[C@]2(C)[C@H](CC[C@@H]3[C@@]4(C)CC[C@H](OC5OC(CO)C(O)C(O)C5OC5OC(CO)C(O)C(O)C5O)C(C)(C)[C@@H]4CC[C@]32C)[C@H]1O)CO` (some centres undefined), for which the TGI in assay [2], in assay [3] and in assay [4] was over 100 µM in each case.

In the case of `COc1cc(-c2c3c(cc4c2OCO4)[C@@H](Nc2ccc(-c4ccc(-c5ccc(N[C@@H]6c7cc8c(cc7C(c7cc(OC)c(O)c(OC)c7)[C@H]7C(=O)OC[C@H]67)OCO8)cc5)cc4)cc2)[C@H]2COC(=O)[C@@H]2C3)cc(OC)c1O` (some centres undefined), in assay [3], the TGI stood at 10.7 µM.

Turning to `O=C(O)/C=C/c1ccc2c(c1)CC1(Cc3ccccc3C1)C2`, the TGI in assay [1], in assay [2] and in assay [4] was over 100 µM in each case.

`Cc1cc2nc3c(C#N)c4c(c(-c5ccc(Cl)cc5)n3c2cc1C)CCC4`: the TGI in assay [2] was 53.6 µM; in assay [3] it was over 100 µM; in assay [4] it was 74.4 µM.

Take `CCCCOC(=O)C1CC[C@H]2[C@@H]3CCc4cc(OC(=O)c5cccc6c(=O)c7ccccc7[nH]c56)ccc4[C@H]3CC[C@]12C` (some centres undefined): the TGI in assay [1] turned out to be 15.8 µM; in assay [2], 21.4 µM; in assay [4], 20.6 µM.

With `CC1=CP(=O)(c2c(C(C)C)cc(C(C)C)cc2C(C)C)CCC1Cl` (centres undefined), the TGI in assay [2] came out at 35.6 µM; in assay [3], 35.3 µM; in assay [4], 40.9 µM.

On to `O=C(O)c1nc2ccc(C(F)(F)F)cc2nc1Nc1ccc(F)cc1`, for which the TGI was 34.3 µM in assay [1], 43.4 µM in assay [2] and 50.9 µM in assay [3].

The values are drawn from PubChem BioAssay (NCI).
